Target: HIV-1 PR (Human immunodeficiency virus type 1 group M subtype B, UniProt P04585)
Assay: HIV-protease inhibitory activity assay (FRET peptide substrate)
Assay type: biochemical
Settings: Test Example 1
Summary of the method: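 HIV-1 PR (0.83 ng) preincubated with compounds 20 min at room temperature in 0.1 mol/L NaAc, 0.5 mol/L NaCl, 1 mmol/L EDTA, 1 mmol/L DTT, 0.05% Tween 20, pH 4.8. Cleavage of HiLyte Fluor 488/QXL 520 FRET peptide (2 μmol/L) read after 60 minutes at 485/535 nm; IC50 from four-parameter logistic fit.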

First: COc1ccc(S(=O)(=O)N(CC(C)C)CC(O)C(Cc2ccc(OCc3ccccc3-c3sc4c(c3C(=O)NS(=O)(=O)C3CC3)CC(C)(C)CC4)cc2)NC(=O)OC2COC3(C)OCCC23)cc1 (stereo not drawn) [Compound I-58]
Second: COc1ccc(S(=O)(=O)N(CC(C)C)CC(O)C(Cc2ccc(NC3c4ccccc4C(=O)N3c3sc4c(c3C(=O)O)CC(C)(C)CC4)cc2)NC(=O)OC2COC3(C)OCCC23)cc1 (stereo not drawn) [Compound I-536]
The IC50 of the first is 1.9-fold lower: 1.11 nM for the first, 2.1 nM for the second. The first is the more potent here.

`COc1ccc(S(=O)(=O)N(CC(C)C)CC(O)C(Cc2ccc(NCc3c(-c4sc5c(c4C(=O)O)CC(C)(C)CC5)cccc3[N+](=O)[O-])cc2)NC(=O)OC2COC3(C)OCCC23)cc1` (stereo not drawn) [Compound I-546] and `COc1ccc(S(=O)(=O)N(CC(C)C)CC(O)C(Cc2ccc(NCc3cc(Cl)ccc3-c3sc4c(c3C(=O)O)CC(C)(C)CC4)cc2)NC(=O)OC2COC3(C)OCCC23)cc1` (stereo not drawn) [Compound I-547] are within 1.5-fold of each other in IC50: 1.86 nM for the first, 2.28 nM for the second.

Going from `COc1ccc(S(=O)(=O)N(CC(C)C)CC(O)C(Cc2ccc(N(C)CC3CCCCC3C(=O)Nc3sc4c(c3C(=O)O)CC(C)(C)CC4)cc2)NC(=O)OC2COC3(C)OCCC23)cc1` (stereo not drawn) [Compound I-629] to `COc1ccc(S(=O)(=O)N(CC(C)C)CC(O)C(Cc2ccc(N(C)CC3CCCCC3c3sc4c(c3C(=O)O)CC(C)(C)CC4)cc2)NC(=O)OC2COC3(C)OCCC23)cc1` (stereo not drawn) [Compound I-358], the IC50 rises from 2.35 nM to 3.89 nM (1.7-fold).

`CC1(C)CCc2sc(-c3ccc(C(F)(F)F)cc3CNc3ccc(CC(NC(=O)OC4COC5OCCC45)C(O)CN(CC4CCC4)S(=O)(=O)c4ccc5ncsc5c4)cc3)c(C(=O)O)c2C1` (stereo not drawn) [Compound I-872] and `CC(C)CN(CC(O)C(Cc1ccc(NCc2cc(C(F)(F)F)ccc2-c2sc3c(c2C(=O)O)CC(C)(C)CC3)cc1)NC(=O)OC1COC2OCCC12)S(=O)(=O)c1ccc2ncsc2c1` (stereo not drawn) [Compound I-871] are within 1.5-fold of each other in IC50: 4.99 nM for the first, 4.93 nM for the second.

Compared with `COc1ccc(S(=O)(=O)N(CC(C)C)CC(O)C(Cc2ccc(NC3CCCc4c(-c5sc6c(c5C(=O)O)CC(C)(C)CC6)cccc43)cc2)NC(=O)OC2COC3(C)OCCC23)cc1` (stereo not drawn) [Compound I-752], `COc1ccc(S(=O)(=O)N(CC(C)C)CC(O)C(Cc2ccc(N(C)C3CCc4c(-c5sc6c(c5C(=O)O)CC(C)(C)CC6)cccc43)cc2)NC(=O)OC2COC3(C)OCCC23)cc1` (stereo not drawn) [Compound I-709] is 1.8-fold lower in IC50: 13.3 nM for the first, 7.2 nM for the second. The second is the more potent here.

`COc1ccc(S(=O)(=O)N(CC(C)C)CC(O)C(Cc2ccc(NCc3cccc(-c4sc5c(c4C(=O)O)CC(C)(C)CC5)c3OCc3ccccc3)cc2)NC(=O)OC2COC3(C)OCCC23)cc1` (stereo not drawn) [Compound I-558] and `COc1ccc(S(=O)(=O)N(CC(C)C)CC(O)C(Cc2ccc(NCc3ccccc3-c3ccc(Nc4sc5c(c4C(=O)O)CC(C)(C)CC5)nc3)cc2)NC(=O)OC2COC3(C)OCCC23)cc1` (stereo not drawn) [Compound I-775] are within 1.5-fold of each other in IC50: 4.99 nM for the first, 3.64 nM for the second.

Compared with `COc1ccc(S(=O)(=O)N(CC(C)C)CC(O)C(Cc2ccc(N(C)Cc3ccc(Oc4ccccc4)cc3-c3sc4c(c3C(=O)O)CC(C)(C)CC4)cc2)NC(=O)OC2COC3(C)OCCC23)cc1` (stereo not drawn) [Compound I-696], `COc1ccc(S(=O)(=O)N(CC(C)C)CC(O)C(Cc2ccc(N(C)Cc3ccccc3-c3ccc(Nc4sc5c(c4C(=O)O)CC(C)(C)CC5)nc3)cc2)NC(=O)OC2COC3(C)OCCC23)cc1` (stereo not drawn) [Compound I-776] is 1.9-fold lower in IC50: 12.2 nM for the first, 6.4 nM for the second.

Going from `COc1ccc(S(=O)(=O)N(CC(C)C)CC(O)C(Cc2ccc(NCc3ccc(C=CC(=O)Nc4sc5c(c4C(=O)O)CC(C)(C)CC5)cc3)cc2)NC(=O)OC2COC3(C)OCCC23)cc1` (stereo not drawn) [Compound I-444] to `COc1ccc(S(=O)(=O)N(CC(C)C)CC(O)C(Cc2ccc(NCc3ccc(-c4sc5c(c4C(=O)O)CC(C)(C)CC5)nc3)cc2)NC(=O)OC2COC3(C)OCCC23)cc1` (stereo not drawn) [Compound I-551], the IC50 falls from 5.1 nM to 1.34 nM (3.8-fold). The second is the more potent here.

`COc1ccc(S(=O)(=O)N(CC(C)C)CC(O)C(Cc2ccc(N(C)C(=O)Nc3sc4c(c3C(=O)O)CC(C)(C)CC4)cc2)NC(=O)OC2COC3(C)OCCC23)cc1` (stereo not drawn) [Compound I-220] and `COc1ccc(S(=O)(=O)N(CC(C)C)CC(O)C(Cc2ccc(NC(=O)c3sc4c(c3C(=O)O)CC(C)(C)CC4)cc2)NC(=O)OC2COC3(C)OCCC23)cc1` (stereo not drawn) [Compound I-208] are within 1.5-fold of each other in IC50: 2.08 nM for the first, 1.86 nM for the second.

First: CC(C)CN(CC(O)C(Cc1ccc(OCc2cc(-c3ccc(F)cc3F)ccc2C(=O)O)cc1)NC(=O)OC1COC2(C)OCCC12)S(=O)(=O)c1ccc2ncsc2c1 (stereo not drawn) [Compound I-61]
Second: CC(C)CN(CC(O)C(Cc1ccc(Oc2ccc(-c3ccc(F)cc3F)cc2C(=O)O)cc1)NC(=O)OC1COC2(C)OCCC12)S(=O)(=O)c1ccc2ncsc2c1 (stereo not drawn) [Compound I-59]
The IC50 of the first is 1.6-fold higher: 1.9 nM for the first, 1.19 nM for the second.

Compared with `COc1ccc(S(=O)(=O)N(CC(C)C)CC(O)C(Cc2ccc(NCc3cc(-c4sc5c(c4C(=O)O)CC(C)(C)CC5)co3)cc2)NC(=O)OC2COC3(C)OCCC23)cc1` (stereo not drawn) [Compound I-284], `COc1ccc(S(=O)(=O)N(CC(C)C)CC(O)C(Cc2ccc(NCc3cc(C)cc(-c4sc5c(c4C(=O)O)CC(C)(C)CC5)c3)cc2)NC(=O)OC2COC3(C)OCCC23)cc1` (stereo not drawn) [Compound I-549] is 1.9-fold lower in IC50: 2.98 nM for the first, 1.55 nM for the second.

`COc1ccc(S(=O)(=O)N(CC(C)C)CC(O)C(Cc2ccc(OCC3COCC3c3sc4c(c3C(=O)O)CC(C)(C)CC4)cc2)NC(=O)OC2COC3(C)OCCC23)cc1` (stereo not drawn) [Compound I-395] and `COc1ccc(S(=O)(=O)N(CC(C)C)CC(O)C(Cc2ccc(NCc3cccnc3-c3sc4c(c3C(=O)O)CC(C)(C)CC4)cc2)NC(=O)OC2COC3(C)OCCC23)cc1` (stereo not drawn) [Compound I-128] are within 1.5-fold of each other in IC50: 1.86 nM for the first, 2.19 nM for the second.

`COc1ccc(S(=O)(=O)N(CC(C)C)CC(O)C(Cc2ccc(OCc3ccccc3-n3nc4c(c3C(=O)O)Cc3ccccc3-4)cc2)NC(=O)OC2COC3(C)OCCC23)cc1` (stereo not drawn) [Compound I-143] and `COc1ccc(S(=O)(=O)N(CC(C)C)CC(O)C(Cc2ccc(OCc3ccccc3-c3ccc4c(c3)C(=O)C(c3ccccc3C)C4=O)cc2)NC(=O)OC2COC3(C)OCCC23)cc1` (stereo not drawn) [Compound I-176] are within 1.5-fold of each other in IC50: 0.99 nM for the first, 1.01 nM for the second.

First: COc1ccc(S(=O)(=O)N(CC(C)C)C[C@@H](O)[C@H](Cc2ccc(OCc3ccc(-c4ccc(F)cc4F)cc3C(=O)NC(=O)NC(C)(C)C)cc2)NC(=O)O[C@H]2CO[C@@]3(C)OCC[C@@H]23)cc1 [Compound I-25]
Second: COc1ccc(S(=O)(=O)N(CC(C)C)CC(O)C(Cc2ccc(OCc3ccc(C(=O)O)c(-c4ccc(F)cc4F)c3)cc2)NC(=O)OC2COC3(C)OCCC23)cc1 (stereo not drawn) [Compound I-149]
The IC50 of the first is 1.6-fold higher: 2.07 nM for the first, 1.27 nM for the second.

First: COc1ccc(S(=O)(=O)N(CC(C)C)CC(O)C(Cc2ccc(N(C)Cc3ccc(N4CCCCC4=O)cc3-c3sc4c(c3C(=O)O)CC(C)(C)CC4)cc2)NC(=O)OC2COC3(C)OCCC23)cc1 (stereo not drawn) [Compound I-743]
Second: COc1ccc(S(=O)(=O)N(CC(C)C)CC(O)C(Cc2ccc(N(C)CC3=C(c4sc5c(c4C(=O)O)CC(C)(C)CC5)C4CC(C3)C4(C)C)cc2)NC(=O)OC2COC3(C)OCCC23)cc1 (stereo not drawn) [Compound I-628]
The IC50 of the first is 2.2-fold lower: 2.32 nM for the first, 5.03 nM for the second. The first is the more potent here.

`COc1ccc(S(=O)(=O)N(CC(C)C)CC(O)C(Cc2ccc(NCc3ccccc3C(=O)Nc3sc4c(c3C(=O)O)CC(C)(C)CC4)cc2)NC(=O)OC2COC3(C)OCCC23O)cc1` (stereo not drawn) [Compound I-891] and `CC(C)CN(CC(O)C(Cc1ccc(NCc2ccccc2C(=O)Nc2sc3c(c2C(=O)O)CC(C)(C)CC3)cc1)NC(=O)OC1COC2(C)OCCC12)S(=O)(=O)c1ccc2c(c1)OCO2` (stereo not drawn) [Compound I-591] are within 1.5-fold of each other in IC50: 2.88 nM for the first, 3.16 nM for the second.

`COc1ccc(S(=O)(=O)N(CC(C)C)CC(O)C(Cc2ccc(NCc3cnn4ccc(C(=O)Nc5sc6c(c5C(=O)O)CC(C)(C)CC6)nc34)cc2)NC(=O)OC2COC3(C)OCCC23)cc1` (stereo not drawn) [Compound I-442] and `COc1ccc(S(=O)(=O)N(CC2CCC2)CC(O)C(Cc2ccc(N(C)Cc3ccccc3C(=O)Nc3sc4c(c3C(=O)O)CC(C)(C)CC4)cc2)NC(=O)OC2COC3(C)OCCC23)cc1` (stereo not drawn) [Compound I-682] are within 1.5-fold of each other in IC50: 2.95 nM for the first, 4.37 nM for the second.

Compared with `COc1ccc(S(=O)(=O)N(CC(C)C)CC(O)C(Cc2ccc(OCc3ccccc3-c3sc4c(c3C(=O)O)CCC(=O)C4)cc2)NC(=O)OC2COC3OCCC23)cc1` (stereo not drawn) [Compound I-833], `COc1ccc(S(=O)(=O)N(CC(C)C)CC(O)C(Cc2ccc(OCc3ccccc3-c3sc(N4CCC(C)(C)CC4)nc3C(=O)O)cc2)NC(=O)OC2COC3OCCC23)cc1` (stereo not drawn) [Compound I-845] is 1.8-fold lower in IC50: 1.54 nM for the first, 0.85 nM for the second.

`CC(C)CN(CC(O)C(Cc1ccc(OCc2ccccc2-c2sc3c(c2C(=O)O)CC(C)(C)CC3)cc1)NC(=O)OC1COC2(C)OCCC12)S(=O)(=O)c1ccc2nc(NC3CCN(C4CCCC4)CC3)sc2c1` (stereo not drawn) [Compound I-792] and `COc1ccc(S(=O)(=O)N(CC(C)C)CC(O)C(Cc2ccc(OCC3CCN(c4ccc(C#N)cc4-c4sc5c(c4C(=O)O)CC(C)(C)CC5)CC3)cc2)NC(=O)OC2COC3(C)OCCC23)cc1` (stereo not drawn) [Compound I-325] are within 1.5-fold of each other in IC50: 25 nM for the first, 31.7 nM for the second.

`COc1ccc(S(=O)(=O)N(CC(C)C)CC(O)C(Cc2ccc(NCC3CC(C)(C)CCC3c3sc4c(c3C(=O)O)CC(C)(C)CC4)cc2)NC(=O)OC2COC3OCCC23)cc1` (stereo not drawn) [Compound I-886] and `COc1ccc(S(=O)(=O)N(CC(C)C)CC(O)C(Cc2ccc(OCCN(C)c3ccc(C#N)cc3-c3sc4c(c3C(=O)O)CC(C)(C)CC4)cc2)NC(=O)OC2COC3(C)OCCC23)cc1` (stereo not drawn) [Compound I-257] are within 1.5-fold of each other in IC50: 3.68 nM for the first, 4.98 nM for the second.

First: COc1ccc(S(=O)(=O)N(CC(C)C)CC(O)C(Cc2ccc(NCc3ccccc3-c3nc4n(c3C(=O)O)CCCC4)cc2)NC(=O)OC2COC3(C)OCCC23)cc1 (stereo not drawn) [Compound I-368]
Second: COc1ccc(S(=O)(=O)N(CC(C)C)CC(O)C(Cc2ccc(Oc3ccc(C(=O)O)c(-c4ccc(F)cc4F)c3)cc2)NC(=O)OC2COC3(C)OCCC23)cc1 (stereo not drawn) [Compound I-155]
The IC50 of the first is 1.5-fold higher: 2.11 nM for the first, 1.37 nM for the second. The second is the more potent here.

`COc1ccc(S(=O)(=O)N(CC(C)C)CC(O)C(Cc2ccc(OC3CCC(C(C)(C)C(=O)O)CC3)cc2)NC(=O)OC2COC3(C)OCCC23)cc1` (stereo not drawn) [Compound I-310] and `COc1ccc(S(=O)(=O)N(CC2CCCC2)CC(O)C(Cc2ccc(OCc3ccccc3Cn3nc(C(=O)O)c4c3CCC(C)(C)C4)cc2)NC(=O)OC2COC3(C)OCCC23)cc1` (stereo not drawn) [Compound I-221] are within 1.5-fold of each other in IC50: 1.96 nM for the first, 2.11 nM for the second.

`CC1(C)CCc2sc(-c3ccc(CN(CC(O)C(Cc4ccccc4)NC(=O)OC4COC5(C)OCCC45)S(=O)(=O)c4ccc5ncsc5c4)cc3)c(C(=O)O)c2C1` (stereo not drawn) [Compound I-167] gave an IC50 of 7.1 nM.
